Test results published in ChEMBL document CHEMBL1201862, “PubChem BioAssay data set” (2004).
Calls of active or inactive are those of the source.

How the values were obtained:
INS1 = assay: beta cell apoptosis inhibitors, cytokine rescue, dose response, luminescence, retest (AID 449756); format: functional, cell-based; details: Rattus norvegicus;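 also: cell death triggered by IL-1 beta plus TNF-alpha plus IFN-gamma mixture; protective hits raise ATP signal compared with cytokine alone wells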
[1] = biological target: FAD-linked sulfhydryl oxidase ALR (Homo sapiens, UniProt P55789); assay: inhibitors of human ALR sulfhydryl oxidase, dose response, biochemical, H2O2 detection, luminescence, cherry-pick (AID 493248)
Sequence of FAD-linked sulfhydryl oxidase ALR (P55789 whole entry): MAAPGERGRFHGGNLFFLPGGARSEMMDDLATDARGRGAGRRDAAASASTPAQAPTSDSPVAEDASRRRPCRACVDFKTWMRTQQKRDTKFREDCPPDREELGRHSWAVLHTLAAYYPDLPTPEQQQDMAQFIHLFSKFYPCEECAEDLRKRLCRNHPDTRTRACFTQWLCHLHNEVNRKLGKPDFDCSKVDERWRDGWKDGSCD

[2] = biological target: T1, Serine/threonine-protein phosphatase (Candida dubliniensis (strain CD36 / CBS 7987 / NCPF 3949 / NRRLY-17841) (Yeast), UniProt B9W6M3); assay: calcineurin pathway inhibitors in yeast reporter, dose response, S. cerevisiae, CDRE-lacZ, luminescence, secondary (AID 2388); format: functional, cell-based;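 also: yeast reporter cells carrying a calcineurin-responsive lacZ construct stimulated with calcium chloride; luminescent beta-galactosidase reporter signal in whole cells rather than isolated phosphatase activity; potency for inhibition where a drop in reporter signal means calcineurin blockade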
T1 sequence (B9W6M3 whole entry): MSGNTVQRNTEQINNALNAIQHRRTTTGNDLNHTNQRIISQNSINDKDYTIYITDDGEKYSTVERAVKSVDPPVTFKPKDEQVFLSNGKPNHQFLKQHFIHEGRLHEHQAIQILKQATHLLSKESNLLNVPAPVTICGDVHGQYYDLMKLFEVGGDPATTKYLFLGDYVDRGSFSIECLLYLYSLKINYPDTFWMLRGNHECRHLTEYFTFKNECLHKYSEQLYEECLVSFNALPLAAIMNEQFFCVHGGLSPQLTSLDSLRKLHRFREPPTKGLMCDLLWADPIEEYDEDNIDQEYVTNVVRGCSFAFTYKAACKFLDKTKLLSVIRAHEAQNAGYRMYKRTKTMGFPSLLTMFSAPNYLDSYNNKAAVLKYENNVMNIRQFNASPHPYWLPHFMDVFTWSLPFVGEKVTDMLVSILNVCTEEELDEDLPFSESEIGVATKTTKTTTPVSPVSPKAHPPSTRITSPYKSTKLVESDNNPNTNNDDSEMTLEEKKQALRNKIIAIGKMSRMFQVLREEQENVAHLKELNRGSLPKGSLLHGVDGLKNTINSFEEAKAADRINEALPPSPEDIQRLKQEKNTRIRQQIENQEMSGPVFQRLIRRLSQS

[3] = C. albicans growth with fluconazole, confirmation, fluorescence, retest (AID 2467); format: functional, cell-based
Nonstructural protein 1 = Nonstructural protein 1 (Influenza A virus, UniProt Q194T2); format: functional, Influenza A virus (A/California/07/2009(H1N1))
Sequence of Nonstructural protein 1 (Q194T2 whole entry): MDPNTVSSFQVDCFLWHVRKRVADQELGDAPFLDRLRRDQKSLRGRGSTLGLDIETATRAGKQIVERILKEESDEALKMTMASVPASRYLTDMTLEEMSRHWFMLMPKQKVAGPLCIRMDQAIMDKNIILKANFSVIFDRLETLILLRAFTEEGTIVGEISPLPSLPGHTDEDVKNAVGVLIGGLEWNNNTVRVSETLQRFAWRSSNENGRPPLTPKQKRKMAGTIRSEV

[4] = NIH-3T3 fibroblast cytotoxicity, dose response, cytotoxicity control, cell-based, fluorescence, Alamar Blue, secondary assay (AID 2327); format: functional;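 also: NIH-3T3 mouse fibroblasts cultured with fluconazole at 8 µg/mL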
[5] = biological target: ATP-dependent molecular chaperone HSP82 (Candida albicans (strain WO-1) (Yeast), UniProt C4YTQ8); assay: loss of DOC-induced GRE-beta-galactosidase reporter signal, dose response, Hsp90 inhibitor project, S. cerevisiae, luminescence (AID 2400); format: functional, cell-based;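 also: beta-galactosidase luminescence from glucocorticoid response element reporter as proxy for Hsp90 function; inhibitor potency where signal loss means Hsp90 inhibition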
Sequence of ATP-dependent molecular chaperone HSP82 (C4YTQ8 whole entry): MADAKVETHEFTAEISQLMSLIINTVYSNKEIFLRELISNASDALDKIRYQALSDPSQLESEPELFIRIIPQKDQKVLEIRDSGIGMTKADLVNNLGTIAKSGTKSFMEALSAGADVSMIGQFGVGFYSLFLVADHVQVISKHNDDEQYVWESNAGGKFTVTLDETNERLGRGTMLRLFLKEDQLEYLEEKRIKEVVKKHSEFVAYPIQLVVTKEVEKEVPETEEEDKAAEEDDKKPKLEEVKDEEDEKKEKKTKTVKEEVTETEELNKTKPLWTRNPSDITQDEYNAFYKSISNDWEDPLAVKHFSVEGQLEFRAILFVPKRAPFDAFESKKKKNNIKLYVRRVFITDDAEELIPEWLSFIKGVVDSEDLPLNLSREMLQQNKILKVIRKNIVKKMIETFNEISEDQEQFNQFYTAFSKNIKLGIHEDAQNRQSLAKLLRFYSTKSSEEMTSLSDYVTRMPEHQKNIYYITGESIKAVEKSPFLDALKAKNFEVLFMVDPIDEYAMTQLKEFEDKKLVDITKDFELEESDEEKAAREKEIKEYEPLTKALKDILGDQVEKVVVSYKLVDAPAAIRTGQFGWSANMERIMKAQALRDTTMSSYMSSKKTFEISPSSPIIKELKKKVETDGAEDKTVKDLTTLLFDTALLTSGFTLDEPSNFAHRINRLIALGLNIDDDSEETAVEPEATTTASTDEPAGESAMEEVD

Cytochrome P450 2C19 = Cytochrome P450 2C19 (Homo sapiens, UniProt P33261); assay: Cytochrome panel assay with activity outcomes. Panel member name: p450-cyp2c19 Compounds with AC50 equal or less than 10 uM are considered active; format: functional; details: read-out: AC50
Sequence of Cytochrome P450 2C19 (P33261 whole entry): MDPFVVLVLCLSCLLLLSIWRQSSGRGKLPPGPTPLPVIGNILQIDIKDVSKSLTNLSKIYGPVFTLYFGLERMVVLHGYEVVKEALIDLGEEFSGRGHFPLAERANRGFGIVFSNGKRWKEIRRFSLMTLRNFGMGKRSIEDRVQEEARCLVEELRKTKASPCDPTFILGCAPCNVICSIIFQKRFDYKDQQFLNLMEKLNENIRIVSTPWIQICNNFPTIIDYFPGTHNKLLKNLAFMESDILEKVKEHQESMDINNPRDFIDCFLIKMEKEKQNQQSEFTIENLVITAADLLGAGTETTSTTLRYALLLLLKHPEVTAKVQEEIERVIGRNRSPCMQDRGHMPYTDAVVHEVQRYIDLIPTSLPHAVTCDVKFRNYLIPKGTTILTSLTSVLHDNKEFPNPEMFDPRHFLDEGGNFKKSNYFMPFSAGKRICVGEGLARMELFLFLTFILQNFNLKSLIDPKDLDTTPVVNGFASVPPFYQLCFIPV

Cytochrome P450 3A4 = Cytochrome P450 3A4 (Homo sapiens, UniProt P08684);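 also: CYP3A4 tested as one member of a cytochrome P450 panel screen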
Sequence of Cytochrome P450 3A4 (P08684 whole entry): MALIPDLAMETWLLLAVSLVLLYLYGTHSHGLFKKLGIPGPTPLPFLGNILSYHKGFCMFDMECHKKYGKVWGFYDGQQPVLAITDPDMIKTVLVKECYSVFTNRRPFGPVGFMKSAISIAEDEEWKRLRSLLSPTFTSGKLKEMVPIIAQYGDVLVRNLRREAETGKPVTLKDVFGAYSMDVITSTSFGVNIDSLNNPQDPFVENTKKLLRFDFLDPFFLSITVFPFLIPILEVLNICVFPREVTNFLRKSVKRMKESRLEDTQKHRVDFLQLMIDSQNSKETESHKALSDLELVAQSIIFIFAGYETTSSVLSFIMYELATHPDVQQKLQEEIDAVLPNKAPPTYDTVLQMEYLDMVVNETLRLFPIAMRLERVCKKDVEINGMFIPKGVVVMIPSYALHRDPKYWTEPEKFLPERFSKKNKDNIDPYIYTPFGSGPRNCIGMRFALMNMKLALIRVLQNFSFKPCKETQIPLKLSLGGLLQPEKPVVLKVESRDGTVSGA

Cytochrome P450 2D6 = Cytochrome P450 2D6 (Homo sapiens, UniProt P10635);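 also: CYP2D6 member of a cytochrome P450 panel assay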
Sequence of Cytochrome P450 2D6 (P10635 whole entry): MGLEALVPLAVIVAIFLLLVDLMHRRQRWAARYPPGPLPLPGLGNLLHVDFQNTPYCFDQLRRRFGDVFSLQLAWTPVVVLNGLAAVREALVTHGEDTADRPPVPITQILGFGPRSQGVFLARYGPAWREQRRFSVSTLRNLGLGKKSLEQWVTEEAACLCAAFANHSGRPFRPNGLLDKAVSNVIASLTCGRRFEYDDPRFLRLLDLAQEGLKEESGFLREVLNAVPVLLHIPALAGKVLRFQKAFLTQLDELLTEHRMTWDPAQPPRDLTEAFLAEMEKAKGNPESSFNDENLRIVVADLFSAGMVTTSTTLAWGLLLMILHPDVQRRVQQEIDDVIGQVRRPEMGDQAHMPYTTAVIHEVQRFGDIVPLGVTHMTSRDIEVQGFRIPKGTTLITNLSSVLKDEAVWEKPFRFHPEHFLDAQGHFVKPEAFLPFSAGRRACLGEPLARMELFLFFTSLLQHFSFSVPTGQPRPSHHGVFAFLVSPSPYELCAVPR

[6] = microbe, parasite or virus in culture; format: functional; details: Mycobacterium tuberculosis
Genome polyprotein = Genome polyprotein (dengue virus type 2, UniProt P29990); assay: Dengue-2 NS5 methyltransferase inhibitors, primary screen, biochemical, confirmation dose response (AID 588689); format: functional
Sequence of Genome polyprotein (P29990 2492-3391 limits assumed): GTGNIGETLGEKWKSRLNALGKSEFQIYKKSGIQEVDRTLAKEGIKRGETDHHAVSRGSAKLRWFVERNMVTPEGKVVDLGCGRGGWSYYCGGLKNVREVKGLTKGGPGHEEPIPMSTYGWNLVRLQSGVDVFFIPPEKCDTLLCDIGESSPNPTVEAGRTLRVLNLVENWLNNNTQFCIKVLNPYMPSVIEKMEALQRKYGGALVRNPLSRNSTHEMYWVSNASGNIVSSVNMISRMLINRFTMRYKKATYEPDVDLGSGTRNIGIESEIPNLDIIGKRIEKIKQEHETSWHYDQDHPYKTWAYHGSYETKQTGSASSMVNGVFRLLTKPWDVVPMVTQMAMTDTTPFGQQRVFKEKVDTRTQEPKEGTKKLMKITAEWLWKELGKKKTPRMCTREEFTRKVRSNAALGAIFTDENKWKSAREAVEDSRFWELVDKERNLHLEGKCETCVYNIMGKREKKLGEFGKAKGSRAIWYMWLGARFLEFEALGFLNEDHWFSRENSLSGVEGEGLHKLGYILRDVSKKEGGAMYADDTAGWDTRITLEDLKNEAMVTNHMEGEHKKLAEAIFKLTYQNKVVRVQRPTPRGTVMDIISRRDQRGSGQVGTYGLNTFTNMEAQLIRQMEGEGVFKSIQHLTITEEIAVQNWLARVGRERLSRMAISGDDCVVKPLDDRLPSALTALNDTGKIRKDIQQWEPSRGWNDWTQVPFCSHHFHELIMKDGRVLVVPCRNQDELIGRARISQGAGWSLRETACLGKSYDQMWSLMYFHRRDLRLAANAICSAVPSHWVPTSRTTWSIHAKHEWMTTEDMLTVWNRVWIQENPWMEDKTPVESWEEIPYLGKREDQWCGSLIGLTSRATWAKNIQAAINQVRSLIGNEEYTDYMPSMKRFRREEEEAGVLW

Exodeoxyribonuclease V = biological target: T2, Exodeoxyribonuclease V (Escherichia coli (strain K12), UniProt P04993+P07648+P08394); assay: E. coli RecBCD inhibitors, dose response, counter-screen for AddAB inhibitor project, absorbance, V66 E. coli, mutant T4 phage (AID 492957); format: functional, cell-based, Escherichia coli str. K-12 substr. MG1655
T2 sequence (P04993 whole entry): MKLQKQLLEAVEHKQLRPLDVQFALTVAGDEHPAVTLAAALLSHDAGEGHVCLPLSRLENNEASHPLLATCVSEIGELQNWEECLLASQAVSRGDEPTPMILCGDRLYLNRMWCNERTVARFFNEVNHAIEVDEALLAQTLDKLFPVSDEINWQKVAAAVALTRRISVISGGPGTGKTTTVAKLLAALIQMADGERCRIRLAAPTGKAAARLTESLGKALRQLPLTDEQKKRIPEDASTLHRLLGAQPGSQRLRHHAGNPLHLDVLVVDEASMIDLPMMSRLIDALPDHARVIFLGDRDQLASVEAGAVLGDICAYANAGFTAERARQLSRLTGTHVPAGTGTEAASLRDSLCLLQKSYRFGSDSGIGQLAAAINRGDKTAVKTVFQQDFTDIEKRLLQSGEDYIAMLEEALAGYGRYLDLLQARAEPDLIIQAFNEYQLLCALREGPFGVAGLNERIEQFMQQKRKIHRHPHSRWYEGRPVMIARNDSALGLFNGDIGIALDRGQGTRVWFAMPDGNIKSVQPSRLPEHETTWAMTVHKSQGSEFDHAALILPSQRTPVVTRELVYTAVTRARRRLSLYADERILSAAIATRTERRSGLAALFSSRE
T2 sequence (P07648 whole entry): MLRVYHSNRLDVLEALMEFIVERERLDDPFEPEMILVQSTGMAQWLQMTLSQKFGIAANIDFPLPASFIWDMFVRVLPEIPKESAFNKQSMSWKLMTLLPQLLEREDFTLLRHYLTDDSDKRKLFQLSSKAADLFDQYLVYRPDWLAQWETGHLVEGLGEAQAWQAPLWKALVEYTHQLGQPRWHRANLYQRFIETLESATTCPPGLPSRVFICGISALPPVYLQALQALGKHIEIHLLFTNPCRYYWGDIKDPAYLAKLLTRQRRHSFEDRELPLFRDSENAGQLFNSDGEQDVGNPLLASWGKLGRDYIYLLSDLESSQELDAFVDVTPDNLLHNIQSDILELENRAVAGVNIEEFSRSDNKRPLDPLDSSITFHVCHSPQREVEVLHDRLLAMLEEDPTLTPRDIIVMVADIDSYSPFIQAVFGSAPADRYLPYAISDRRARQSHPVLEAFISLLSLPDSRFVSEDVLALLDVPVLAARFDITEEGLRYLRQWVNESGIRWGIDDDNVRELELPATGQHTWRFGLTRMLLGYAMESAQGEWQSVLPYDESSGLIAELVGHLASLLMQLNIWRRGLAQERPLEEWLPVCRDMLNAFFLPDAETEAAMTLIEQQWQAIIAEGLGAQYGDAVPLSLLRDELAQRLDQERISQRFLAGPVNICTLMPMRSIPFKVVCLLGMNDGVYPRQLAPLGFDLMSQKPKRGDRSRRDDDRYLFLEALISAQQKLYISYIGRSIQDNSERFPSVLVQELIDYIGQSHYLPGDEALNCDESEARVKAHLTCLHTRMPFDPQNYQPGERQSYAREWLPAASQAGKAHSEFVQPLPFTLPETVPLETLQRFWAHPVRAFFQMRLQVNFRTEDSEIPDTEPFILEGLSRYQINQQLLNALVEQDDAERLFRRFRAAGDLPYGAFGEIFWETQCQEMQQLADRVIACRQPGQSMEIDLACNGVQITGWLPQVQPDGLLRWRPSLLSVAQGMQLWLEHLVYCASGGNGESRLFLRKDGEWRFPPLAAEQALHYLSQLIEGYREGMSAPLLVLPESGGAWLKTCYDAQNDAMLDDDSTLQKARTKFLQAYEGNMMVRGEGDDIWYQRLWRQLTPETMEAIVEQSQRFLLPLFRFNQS
T2 sequence (P08394 whole entry): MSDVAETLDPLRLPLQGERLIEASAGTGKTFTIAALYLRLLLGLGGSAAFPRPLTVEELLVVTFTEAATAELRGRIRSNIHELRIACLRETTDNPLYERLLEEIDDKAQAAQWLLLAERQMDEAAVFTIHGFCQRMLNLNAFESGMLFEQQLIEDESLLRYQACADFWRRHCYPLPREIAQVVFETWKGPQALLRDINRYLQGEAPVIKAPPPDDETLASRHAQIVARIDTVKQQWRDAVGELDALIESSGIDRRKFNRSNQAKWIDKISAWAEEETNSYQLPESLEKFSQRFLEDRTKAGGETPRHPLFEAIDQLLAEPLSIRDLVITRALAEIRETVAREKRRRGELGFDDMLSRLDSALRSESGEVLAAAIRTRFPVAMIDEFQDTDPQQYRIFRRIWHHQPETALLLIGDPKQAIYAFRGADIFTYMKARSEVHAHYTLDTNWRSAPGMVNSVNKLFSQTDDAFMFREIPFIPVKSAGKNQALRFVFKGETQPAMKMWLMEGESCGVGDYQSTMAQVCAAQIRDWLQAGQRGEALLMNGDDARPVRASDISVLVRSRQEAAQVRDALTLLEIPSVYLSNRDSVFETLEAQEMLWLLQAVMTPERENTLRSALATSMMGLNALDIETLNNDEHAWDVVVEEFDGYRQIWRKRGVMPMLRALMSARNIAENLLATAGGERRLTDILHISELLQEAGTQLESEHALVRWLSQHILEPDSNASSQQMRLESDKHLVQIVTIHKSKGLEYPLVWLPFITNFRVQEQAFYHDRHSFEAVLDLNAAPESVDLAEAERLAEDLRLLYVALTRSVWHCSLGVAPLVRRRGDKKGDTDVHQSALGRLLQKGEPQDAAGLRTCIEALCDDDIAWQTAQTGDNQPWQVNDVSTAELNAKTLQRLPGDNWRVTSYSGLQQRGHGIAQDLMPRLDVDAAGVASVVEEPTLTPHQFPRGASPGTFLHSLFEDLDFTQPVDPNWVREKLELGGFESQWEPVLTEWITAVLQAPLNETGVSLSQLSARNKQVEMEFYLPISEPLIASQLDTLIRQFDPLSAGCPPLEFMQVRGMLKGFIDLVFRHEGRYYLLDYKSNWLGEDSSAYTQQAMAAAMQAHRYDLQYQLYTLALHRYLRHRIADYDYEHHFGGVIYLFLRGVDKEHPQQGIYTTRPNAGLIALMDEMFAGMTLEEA

Vero = assay: cells; format: functional; details: Chlorocebus sabaeus
[7] = Counterscreen for AddAB inhibitors: absorbance-based bacterial cell-based high throughput dose response assay for inhibitors of bacterial viability. [Related pubchem assays (depositor defined):AID435030, AID449728, AID449731, AID488942, AID488955, AID488956]; format: functional
[8] = control 3'UTR Renilla luciferase suppression, dose response, counter-screen for Shn3 inhibitor project, cell-based, Clone20-Shn3RL, cherry-picked (AID 624133); format: functional
[9] = Shn3 3'UTR reporter inhibitors, dose response, cell-based, Clone20 osteoblasts, firefly luciferase, cherry-picked (AID 624132); format: functional;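 also: firefly luciferase luminescence from reporter carrying the Shn3 3'UTR in osteoblasts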
[10] = inhibitors of intracellular T. cruzi replication, confirmation, NIH3T3 host cells, beta-gal luminescence (AID 2044); format: functional, cell-based;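 also: intracellular parasites grown in NIH/3T3 mouse fibroblasts as host cells; luminescent beta-galactosidase reporter signal from transgenic T. cruzi replicating inside host cells; inhibitors lower the luminescence signal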
[11] = HepG2 cell cytotoxicity, dose response, cytotoxicity control for Shn3 inhibitor project, CellTiter-Glo, cherry-picked (AID 624134); format: functional, cell-based
Streptococcus = assay: Group A Streptococcus viability loss, dose response, counter-screen for streptokinase expression inhibitor project, luminescence, BacTiterGlo (AID 1915); format: functional, organism-based;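 also: potency for reduction of bacterial viability or growth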
[12] = cytotoxicity toward NIH3T3 fibroblasts, dose response, counter-screen, cell-based, ATP luminescence, mouse fibroblasts (AID 2010); format: functional;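 also: cells exposed to compound for about 90 hours before reading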
cells [13] = format: functional, cell-based
cells [14] = format: functional, cell-based; remark: listed apart in the source
[15] = test system: Streptococcus sp. 'group A'; assay: growth inhibition of control SK(-) GAS strain, dose response, counter-screen for streptokinase expression inhibitor project, luminescence, kanamycin, BacTiterGlo, confirmation (AID 1900); format: functional, organism-based

Oc1ccc(N=Nc2nccs2)c(O)c1
AC50 (INS1): 2.78 µM (active) | AC50 [1]: 4.55 µM (active) | EC50 [2]: > 180 µM (inactive) | EC50 [3]: 1.19 µM (active) | IC50 (Nonstructural protein 1): 11.4 µM (active) | EC50 [4]: 16 µM (inconclusive) | EC50 [5]: 21.8 µM (active)

O=C(Nc1cccc(F)c1)N1CCC2(CC1)CCN(C(=O)c1ccco1)CC2
AC50 (Cytochrome P450 2C19): 10 µM (inconclusive) | AC50 (Cytochrome P450 3A4): inconclusive

O=C(c1cc(C(F)(F)F)cc(C(F)(F)F)c1)N1CCC2(CCN(Cc3nccs3)CC2)CC1
AC50 (Cytochrome P450 2D6): 10 µM (inconclusive) | AC50 (Cytochrome P450 3A4): inconclusive

Cn1c(=O)c(-c2ccc(F)cc2)nc2cnc(Oc3ccccc3)nc21
AC50 (Cytochrome P450 3A4): inconclusive

O=[N+]([O-])c1nn(-c2ccc(Cl)cc2)[n+]([O-])c1NCc1cccnc1
EC50 [2]: > 180 µM (inactive) | EC50 [3]: 1.11 µM (active) | CC50 [6]: > 40 µM (active) | EC50 [4]: > 160 µM (inactive) | EC50 [5]: > 150 µM (inactive)

C=CCOc1ccc(/C=C2/C(=O)ON=C2C)cc1OCC
IC50 (Genome polyprotein): > 100 µM (active)

CCCC(=O)NC(c1ccc(Cl)cc1Cl)c1ccc2cccnc2c1O (stereo unspecified)
AC50 (INS1): 0.491 µM (active) | IC50 (Exodeoxyribonuclease V): > 119 µM (inactive) | CC50 (Vero): 1.15 µM (active) | IC50 [7]: > 119 µM (inactive) | AC50 [8]: 3.61 µM (active) | AC50 [9]: 0.638 µM (active) | EC50 [10]: 0.102 µM (active) | AC50 [11]: > 70 µM (inactive) | EC50 (Streptococcus): 7.38 µM (active) | EC50 [12]: 0.543 µM (active) | EC50 (cells [13]): 7.39 µM (active) | EC50 (cells [14]): > 350 µM (not active) | EC50 [15]: 1.01 µM (active)
